Data on five compounds can be found in patent publication US20230414515A1, “ACETIC ACID AS PROCESSING AID IN SPRAY DRYING FOR BASIC DRUGS” (Lonza Bend Inc., priority 2020, published 2023).

The conditions of data set [1]: cited from earlier work; for basic pKa: pH at which half of the basic sites are protonated.
A short description of data set [2]: Solubility of dasatinib in methanol (saturated solution, TGA). It is filed as physicochemical. The conditions noted are these: organic solvent or mixture, thermodynamic from solid, 25° C., analyzed by TGA. Here is the method:
Dasatinib free base was recrystallized from methanol and dried. Crystalline dasatinib was added in excess to methanol to form a saturated solution at 25° C. The solution was analyzed by TGA and found to contain 3.1 mg/mL dasatinib.

The next data set in a line: physchem. The conditions noted are these: 20 °C, organic solvent or mixture, thermodynamic from solid.
The nature of data set [3]: Gefitinib solubility in methanol and methanol:water mixtures without acetic acid (HPLC). The conditions noted are these: thermodynamic from solid, 24 hour stirring. It is filed as physicochemical. Here is the method: Crystalline gefitinib was added in excess to methanol and methanol:water mixtures to form saturated solutions at 20° C. After 24 hour of stirring, 1 mL aliquots were centrifuged at 10′000 RCF for 3 min.

In brackets after ≈: the same amount, converted by molar mass.

Procedure for physchem: The solubility of gefitinib in solvent mixtures with acetic acid were obtained by suspending 300 mg of crystalline gefitinib in 5 mL of solvent (methanol:water) containing 150 microliters of acetic acid at 20° C. (3.9 eq of acetic acid). […] The solubility in 100% methanol with acetic acid was determined after separating undissolved solids by centrifugation of a 1 mL aliquot at 10′000 RCF for 3 min after 1 hour of stirring. The supernatant was then analyzed for gefitinib concentration by HPLC.

Turning to `COc1ccc(-n2nc(C(N)=O)c3c2C(=O)N(c2ccc(N4CCCCC4=O)cc2)CC3)cc1` [Apixaban, apixaban], in data set [1] (pH at which half of the acidic site is deprotonated), the “acidic pKa” value is on record as “ca. 13”. Further, the “basic pKa” value in data set [1] is listed as less than 2.
On to `Cc1nc(Nc2ncc(C(=O)Nc3c(C)cccc3Cl)s2)cc(N2CCN(CCO)CC2)n1` [dasatinib], for which the “basic pKa” value in data set [1] is given as 7.2. In addition, the solubility (usually the dissolved amount per volume that the medium holds) in data set [2] turned out to be 3100 µg/mL (≈ 6.35 mM).
As to `CCC[C@H](NC(=O)[C@@H]1[C@H]2CCC[C@H]2CN1C(=O)[C@@H](NC(=O)[C@@H](NC(=O)c1cnccn1)C1CCCCC1)C(C)(C)C)C(=O)C(=O)NC1CC1` [VX-950, Telaprevir], in data set [1], the “basic pKa” value is −0.69.
Regarding `N#Cc1ccnc(N2C(=O)CC[C@H]2C(=O)N(c2cncc(F)c2)[C@H](C(=O)NC2CC(F)(F)C2)c2ccccc2Cl)c1` [Ivosidenib, ivosidenib], the “basic pKa” value in data set [1] is reported as “ca. 1.81”.
Turning to `COc1cc2ncnc(Nc3ccc(F)c(Cl)c3)c2cc1OCCCN1CCOCC1` [gefitinib], the “basic pKa” value in data set [1] was 6.8. The solubility at 1 h in “physchem” (methanol with acetic acid) is 31000 µg/mL (≈ 69.4 mM). For the same compound, the solubility in “physchem” (methanol:water 60:40 with acetic acid) was more than 60000 µg/mL; in “physchem” (methanol:water 70:30 with acetic acid), more than 60000 µg/mL; in “physchem” (methanol:water 80:20 with acetic acid) it was more than 60000 µg/mL; in “physchem” (methanol:water 90:10 with acetic acid), more than 60000 µg/mL; in “physchem” (methanol:water mixtures with acetic acid), not below 60000 µg/mL. The solubility at 24 h in data set [3] (methanol:water 60:40, organic solvent or mixture, Methanol:H2O 60:40, 20° C.) turned out to be 2100 µg/mL (≈ 4.7 mM); in data set [3] (methanol:water 70:30, organic solvent or mixture, Methanol:H2O 70:30, 20° C.), 4000 µg/mL (≈ 8.95 mM); in data set [3] (methanol:water 80:20, organic solvent or mixture, Methanol:H2O 80:20, 20° C.), 6300 µg/mL (≈ 14.1 mM); in data set [3] (methanol:water 90:10, organic solvent or mixture, Methanol:H2O 90:10, 20° C.), 6000 µg/mL (≈ 13.4 mM); in data set [3] (organic solvent or mixture, Methanol:H2O 100:0, 20° C.) it was 5200 µg/mL (≈ 11.6 mM).
